Reference: patent US9382204B2, “Inhibitors targeting the DNA-binding domain of human STAT3 for treatment of metastatic cancers” (Indiana University Research and Technology Corporation, priority 2013, dated 2016)

How the values were obtained:
MDA-MB-468 = test: PARP cleavage in MDA-MB-468 cells; type: cell-based, human; conditions: 72-hour treatment, data not shown
[1] = Cytotoxicity sulphorhodamine (SRB) assay, non-cancerous cells; conditions: human, IMR90 lung fibroblast and MCF10A1 mammary epithelial cells
Protocol: FIG. 7. […] (A) Level of STAT3 expression and activation. […] Actin was used as a loading control. (B-C) Cytotoxicity assay. […] IC50 of inS3-54 for each cell line was derived using PrismPad program. (D) Apoptosis assay.
Cytotoxicity of inS3-54 was determined using sulphorhodamine colorimetric assay as described previously (41). Photometric enzyme immunoassay using Cell Death Detection ELISA Plus kit (Roche Diagnostics, Indianapolis, Ind.) was performed for quantitative in-vitro determination of cytoplasmic histone-associated DNA fragments and apoptosis as we previously described.
Survival, apoptosis, migration, and invasion assays were performed as previously described. Briefly, effect of STAT3 inhibitors on cell survival were analyzed using sulforhodamine B (SRB) assay. Apoptosis induced by STAT3 inhibitors cells were quantified using Cell Death Detection ELISA^PLUS Kit (Roche, Mannheim, Germany) by enzyme-linked immunosorbent assay (ELISA) according to manufacturer's instructions. Wound filling assay was performed by culturing 1×10^5 cells/well in 6-well plates, followed by generating a wound using a pipet tip and continuous culture with photographic recording at different times.

STAT3 [2] = test: STAT3-dependent luciferase reporter assay in transiently transfected H1299 cells; type: cell-based, human; conditions: newly synthesized compound
Text: FIG. 1. Schematic diagram and identification of inS3-54 by virtual screening. (A) DNA-STAT3 complex structure (PDB code: 1BG1). […] (B) Luciferase activity assay of MDA-MB-231 cells stably transfected with STAT3-dependent luciferase reporter. (C) Structure of inS3-54. (D) Luciferase activity assay of H1299 cells transiently transfected with STAT3-dependent luciferase reporter. (E) Simulated average complex structure of inS3-54 in the DBD of STAT3. (F & G) Molecular surface of STAT3 (F) and STAT1 (G) complexed with inS3-54 from MD simulation with orientation shown in gold for STAT3 and pink for STAT1. Molecular surface is colored with gray for carbon, blue for nitrogen, red for oxygen and yellow for sulfur. (**p<0.01).
To confirm the activity of the compound using re-supplied material, to eliminate the potential issues associated with the use of a single stable clone harboring the luciferase reporter gene, and to test if inS3-54 is cell line specific, we tested newly synthesized inS3-54 using H1299 cells transiently transfected with the STAT3-driven luciferase reporter plasmid. […] Thus, the activity of inS3-54 is not derived from potential contamination in the original supply and it is not dependent on cell line specific or transfection method used.

STAT3 [3] = test: STAT3 dimerization (STAT3c non-reducing PAGE, HA/FLAG co-immunoprecipitation) in H1299 cells; type: cell-based, human; conditions: 20 μM
Text: To eliminate the possibility that inS3-54 works by off-targeting to the SH2 domain, we tested if inS3-54 inhibits STAT3 dimerization using FLAG-STAT3c, which forms spontaneous homo-dimers via formation of intermolecular disulfide bond.
However, inS3-54 had no effect on production of dimeric STAT3c separated using non-reducing SDS-PAGE or non-denaturing PAGE (FIG. 6B) while S3I-201, a STAT3 inhibitor that binds to the SH2 domain, inhibited STAT3c dimerization (FIG. 6B). To confirm this observation, we performed a co-immunoprecipitation analysis of HA and FLAG-tagged STAT3.

[4] = test system: hematopoietic progenitor cells from STAT3−/− mice; test: Hematopoietic progenitor cell colony formation assay, STAT3−/− mice; type: cell-based, mouse; conditions: 20 μM
Protocol: Hematopoietic progenitor cell colony formation assay was performed as previously described. Briefly, 5×10^4 STAT3^+/+ and STAT3^−/− mouse (C57BL/6) bone marrow cells were stimulated in vitro with 1 U/ml recombinant human erythropoietin, 50 ng/ml recombinant mouse stem cell factor and 5% vol/vol pokeweed mitogen mouse spleen cell conditioned medium, and 0.1 mM hemin in the presence of either IMDM medium, IMDM medium plus inS3-54 analogues or DMSO vehicle control. Colonies were scored seven days after incubation at 37° C. with 5% CO2 and lowered (5%) 02.

O=C(O)c1ccc(N2C(=O)/C(=C/c3ccc([N+](=O)[O-])cc3)C=C2c2ccccc2)cc1 [inS3-54, 4-[(3E)-3-[(4-nitrophenyl)-methylidene]-2-oxo-5-phenylpyrrol-1-yl]benzoic acid]
cleavage of PARP (MDA-MB-468): induced cleavage of PARP | IC50 at 72 h [1]: 10 to 12 µM | STAT3-dependent luciferase reporter expression (STAT3 [2]): significantly inhibits | production of dimeric STAT3c (STAT3 [3]; 24 hrs, non-reducing SDS-PAGE or non-denaturing PAGE): had no effect | co-immunoprecipitation between HA- and FLAG-tagged STAT3 (STAT3 [3]; H1299 cells): had no effect | colony formation of hematopoietic progenitor cells from STAT3−/− mice [4]: further reduced
